According to patent US20200341000A1, “METHOD OF SCREENING COMPOUNDS FOR TREATING CNS DISORDERS” (SAGE THERAPEUTICS, INC., priority 2017, published 2020):
“Also recorded” adds a separate entry of the source. Marks after values point to notes of the source that are not given here.

Experiments:
[1] = system: tonic current in dentate gyms granule cells (DGGCs); experiment: Sustained (metabotropic) enhancement of tonic current in DGGCs after 15 min exposure and washout; assay type: cell-based, mice; details: for tonic current after exposure and washout: 1 μM, vehicle 43.9±5.7 pA; for change of tonic current after exposure to different concentrations: maximal effects at 1 μM; for tonic current versus vehicle with PKC inhibitor GFX: GFX 50 μM 15 min, then co-exposure with compound 15 min, washout
Experimental: (§1) Brain slices were prepared from 3- to 5-week-old male C57 mice. Mice were anesthetized with isoflurane, decapitated, and brains were rapidly removed and submerged in ice-cold cutting solution containing (mM): 126 NaCl, 2.5 KCl, 0.5 CaCl2, 2 MgCl2, 26 NaHCO3, 1.25 NaH2PO4, 10 glucose, 1.5 sodium pyruvate, and 3 kynurenic acid. Coronal 310 μm thick slices were cut with the vibratome VT1000S (Leica Microsystems, St Louis, Mo., USA). The slices were then transferred into incubation chamber filled with prewarmed (31-32° C.) oxygenated artificial cerebro-spinal fluid (ACSF) of the following composition (in mM): 126 NaCl, 2.5 KCl, 2 CaCl2, 2 MgCl2, 26 NaHCO3, 1.25 NaH2PO4, 10 glucose, 1.5 sodium pyruvate, 1 glutamine, 3 kynurenic acid and 0.005 GABA bubbled with 95% O2-5% CO2. Slices were allowed to recover at 32° C. for at least 1 hr before recording. Exogenous GABA was added in an attempt to standardize ambient GABA in the slice and provide an agonist source for newly inserted extrasynaptic GABAARs.
(§2) After recovery, a single slice was transferred to a submerged, dual perfusion recording chamber (Warner Instruments, Hamden, Conn., USA) on the stage of an upright microscope (Nikon FN-1) with a 40× water immersion objective equipped with DIC/IR optics. Slices were maintained at 32° C. and gravity-superfused with ACSF solution throughout experimentation and perfused at rate of 2 ml/min with oxygenated (O2/CO2 95/5%) ACSF.
(§3) Whole-cell currents were recorded from the dentate gyms granule cells (DGGCs) in 310-μm-thick coronal hippocampal slices. Patch pipettes (5-7MΩ) were pulled from borosilicate glass (World Precision Instruments) and filled with intracellular solution of the composition (in mM) as follows: 140 CsCl, 1 MgCl2, 0.1 EGTA, 10 HEPES, 2 Mg-ATP, 4 NaCl and 0.3 Na-GTP (pH=7.2 with CsOH). A 5 min period for stabilization after obtaining the whole-cell recording conformation (holding potential of −60 mV) was allowed before currents were recorded using an Axopatch 200B amplifier (Molecular Devices), low-pass filtered at 2 kHz, digitized at 20 kHz (Digidata 1440A; Molecular Devices), and stored for offline analysis.
(§4) For tonic current measurements, an all-points histogram was plotted for a 10 s period before and during 100 μM picrotoxin application, once the response reached a plateau level. Recordings with unstable baselines were discarded. Fitting the histogram with a Gaussian distribution gave the mean baseline current amplitude and the difference between the amplitudes before and during picrotoxin was considered to be the tonic current. The negative section of the all-points histogram which corresponds to the inward IPSCs was not fitted with a Gaussian distribution (Kretschmannova et al., 2013; Nusser and Mody, 2002). Series resistance and whole-cell capacitance were continually monitored and compensated throughout the course of the experiment. Recordings were eliminated from data analysis if series resistance increased by >20%. Spontaneous inhibitory post-synaptic currents (sIPSCs) were analyzed using the mini-analysis software (version 5.6.4; Synaptosoft, Decatur, Ga.). Minimum threshold detection was set to 3 times the value of baseline noise signal. To assess sIPSC kinetics, the recording trace was visually inspected and only events with a stable baseline, sharp rising phase, and single peak were used to negate artifacts due to event summation. Only recordings with a minimum of 200 events fitting these criteria were analyzed. sIPSCs amplitude, and frequency from each experimental condition was pooled and expressed as mean±SEM. To measure sIPSC decay, 100 consecutive events were averaged and the decay was fitted to a double exponential and the weighted decay constant (tw) was determined. Statistical analysis was performed by using Student t-test (paired and unpaired where appropriate), where p<0.05 is considered significant.

[2] = system: GABA receptor trafficking; experiment: GABA receptor trafficking measured by GABAergic current density (FIG. 14); assay type: cell-based; details: measured by the GABAergic current density
Text: As shown in above examples, not all neurosteroids can modulate GABA receptor trafficking.

[3] = system: GABAA receptor β3 subunit S408/9 phosphorylation; experiment: Immunoblot of β3 S408/9 phosphorylation in hippocampal slices; assay type: cell-based, mice; details: 100 nM, 20 min, acute hippocampal slices
Experimental: Hippocampi were dissected out of acute slices from 8 to 12 week old C57/B16 mice and lysed with phosphate buffer including: 20 mM Tris-HCl, 150 mM NaCl, 5 mM EDTA, 10 mM NaF, 2 mM Na3VO4, 10 mM pyrophosphate, 0.1% SDS and 1% Triton after drug treatment. The β3 subunit was isolated using immunoprecipitation with β3 antibodies, after correction for protein content and the specific activity of labeling. Results were attained by SDS/PAGE followed by autoradiography (Abramian et al., 2010). For biotinylation experiments hippocampi were dissected out of acute slices from 8 to 12 week old C57/B16 mice and incubated in artificial cerebrospinal fluid (ACSF) described above at 30° C. for 1 h for recovery before experimentation. Slices were then placed on ice and incubated for 30 min with 1 mg/mL NHS-SS-biotin (Pierce). Excess biotin was removed by a 50 mM glycine quenching buffer, followed by washing of slices three times in ice-cold ACSF. The tissue was snap frozen on dry ice for 5 min, thawed at 4° C. and lysed. The lysates were solubilized with 2% Triton at 4° C. on a rotating wheel for 1 h. The insoluble material was removed by centrifugation, and 350-500 μg of protein lysate were incubated with NeutrAvidin beads (Pierce) for 18-24 h at 4° C. Bound material was eluted with sample buffer and subjected to SDS/PAGE and then immunoblotted with the indicated antibodies. Blots were then quantified using the CCD-based ChemiDoc XRS ? system. Antibodies against the β3 subunit and the phospho-β3 antibody were generated and verified by the laboratory of S.J.M. (Vien et al., 2015).
To produce antibodies specific for phosphorylated S443, rabbits were injected with a synthetic peptide corresponding to residues […] of the murine α4 subunit in which the serine residue corresponding to S443 was chemically phosphorylated; […]. Hippocampal slices were treated with vehicle (Con), or SGE-516 for 20 min. Slices were immunoblotted with pS408/9, β3, or actin antibodies. The ratio of pS408/9/β3 immunoreactivity was then normalized to control slices (100%=the line).
Hippocampal slices were treated with 100 nM ALLO or P4 (progesterone), and S408/9 phosphorylation was then determined as detailed above, n=4 slices (FIG. 18D). Hippocampal slices were treated with 100 nM ORG (FIG. 18E). S408/9 phosphorylation was examined using immunoblotting.

[4] = system: sIPSCs in dentate gyms granule cells (DGGCs); experiment: Acute (allosteric) modulation of sIPSCs in DGGCs of hippocampal slices; assay type: cell-based, mice; details: for mean sIPSC amplitude before versus during exposure / mean sIPSC decay time in the presence of compound: 100 nM; for sIPSC Amplitude / sIPSC Decay / sIPSC Frequency: 100 nM acute exposure, n = 5 to 7 neurons
Experimental: as §1, §2, §3, §4

[5] = 15 min incubation, 30-60 min wash

Compound | increase in tonic current in the absence or presence of strychnine ([1]; 100 nM ALLO 15 min, strychnine 100 nM) | change of tonic current versus vehicle ([1]; 100 nM, 15 min incubation, 30-60 min wash) | tonic current after exposure and washout [1, 5] [pA] | change of tonic current after exposure to different concentrations [1, 5] | tonic current versus vehicle with PKC inhibitor GFX [1] | modulation of GABA receptor trafficking [2] | β3 S408/409 phosphorylation (p-β3/T-β3) [3] | mean sIPSC amplitude before versus during exposure [4] | mean sIPSC decay time in the presence of compound [4] | sIPSC Amplitude [4] [pA] | sIPSC Decay [4] | sIPSC Frequency [4] [Hz] | tonic current in DGGCs after incubation and extensive washout ([1]; 100 nM, WT slices)
CC(=O)[C@H]1CC[C@H]2[C@@H]3CC[C@H]4C[C@H](O)CC[C@]4(C)[C@H]3CC[C@]12C [ALLO, Allopregnanolone] | no difference | significant increase | 95.8±10.8 | concentration-dependent increase; also recorded: significantly enhanced | no significant difference; also recorded: No change | modulated GABA receptor trafficking | increases | no significant difference | significantly increased | 59.1 ± 0.6 | 19.2 ± 1.3^a ms | 3.4 ± 1.0 | –
C[C@@]1(O)CC[C@H]2[C@H](CC[C@@H]3[C@@H]2CC[C@]2(C)[C@@H](C(=O)Cn4nccn4)CC[C@@H]32)C1 [SGE-516] | – | – | 123.0±22.2 | concentration-dependent increase; also recorded: significantly enhanced | no significant difference; also recorded: No change | modulated GABA receptor trafficking | increases | no significant difference | significantly increased | 52.9 ± 0.7 | 15.1 ± 0.8^b ms | 4.6 ± 0.6 | significant increased
